Values quoted from earlier work as cited in patent US20110257262A1, “CRYSTALLINE INGENOL MEBUTATE” (LEO PHARMA A/S, priority 2010, published 2011).

Columns and labels:
skin cancer cells = details: via rapid mitochondrial disruption and cell death by primary necrosis
normal cells = details: compared with skin cancer cells

C/C=C(/C)C(=O)O[C@H]1C(C)=C[C@]23C(=O)[C@@H](C=C(CO)[C@@H](O)[C@]12O)[C@H]1[C@@H](C[C@H]3C)C1(C)C [Ingenol mebutate, (1aR,2S,5R,5aS,6S,8aS,9R,10aR)-5,5a-dihydroxy-4-(hydroxy-methyl)-1,1,7,9-tetramethyl-11-oxo-1a,2,5,5a,6,9,10,10a-octahydro-1H2,8a-methanocyclopenta[a]cyclopropa[e]cyclodecen-6-yl(2Z)-2-methylbut-2-enoate]
toxicity for skin cancer cells (skin cancer cells): highly toxic | sensitivity of normal cells (normal cells): less sensitive
